Test results from patent publication US20150203561A1, “BETA THYMOSIN FRAGMENTS” (REGENERX BIOPHARMACEUTICALS, INC., priority 2008, published 2015).
Entries after “also recorded” stand apart in the source; their conditions may differ.

Assays:
[1] = system: human dermal fibroblasts; experiment: Collagen secretion, colorimetric assay; assay type: cell-based; set-up: key to Stimulates collagens / Inhibits collagens: P = active; U = useful; conditions: summary of peptide uses
Procedure: (§1) Effect of Tb4 and peptides on collagen secretion • Human dermal fibroblasts (Fb) were cultured to 80% confluence • Cells were treated with 1 μg/ml Tb4 or peptides for 24, 48, or 72 hours. Cells were treated once/day. • Culture supernatants (n=3, experiments repeated 5 times) were assayed for collagen secretion using a colorimetric assay that detects collagen types I, II, III, IV and V, and possibly VII

[2] = system: human dermal fibroblasts; experiment: Elastin secretion, colorimetric assay; assay type: cell-based; set-up: key to Stimulates Elastin: P = active; U = useful; conditions: for Stimulates Elastin: summary of peptide uses
Procedure: as §1, with “elastin” for “collagen”, “6” for “5”, “• Data was analyzed using the t-test” for “that detects collagen types I, II, III, IV and V, and possibly VII”

[3] = target: T1, IKKb (Homo sapiens, UniProt O14920); experiment: Cell-free IkBa phosphorylation ELISA (NFkB signaling pathway); assay type: biochemical; set-up: key to Inhibits IkBa phosphorylation: P = active; U = useful; conditions: summary of peptide uses
T1 sequence (O14920 1-756): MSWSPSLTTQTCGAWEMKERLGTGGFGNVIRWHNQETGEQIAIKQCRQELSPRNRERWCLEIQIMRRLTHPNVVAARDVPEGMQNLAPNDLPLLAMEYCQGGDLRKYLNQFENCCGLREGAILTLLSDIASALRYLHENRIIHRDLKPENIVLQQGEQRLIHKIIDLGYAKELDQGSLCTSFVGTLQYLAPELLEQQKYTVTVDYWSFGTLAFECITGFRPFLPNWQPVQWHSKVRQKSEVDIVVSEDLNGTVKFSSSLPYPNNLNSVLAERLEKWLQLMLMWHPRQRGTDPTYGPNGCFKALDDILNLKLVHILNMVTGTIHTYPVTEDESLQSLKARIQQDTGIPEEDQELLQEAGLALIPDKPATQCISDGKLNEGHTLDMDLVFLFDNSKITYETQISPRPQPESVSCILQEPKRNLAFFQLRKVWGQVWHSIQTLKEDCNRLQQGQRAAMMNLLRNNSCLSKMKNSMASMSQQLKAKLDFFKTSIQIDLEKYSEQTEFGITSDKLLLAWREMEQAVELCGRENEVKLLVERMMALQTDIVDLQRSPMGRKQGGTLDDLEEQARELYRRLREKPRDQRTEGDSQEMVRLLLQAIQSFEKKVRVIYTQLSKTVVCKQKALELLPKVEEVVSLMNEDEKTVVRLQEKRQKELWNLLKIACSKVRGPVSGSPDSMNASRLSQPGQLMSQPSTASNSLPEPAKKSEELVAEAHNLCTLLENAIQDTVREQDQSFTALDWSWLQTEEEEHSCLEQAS
Procedure: Effect of Tb4 and peptides on the NFkB signaling pathway • Cell-free assay • Prepared 1.0, 0.1, and 0.01 ng/ml solutions of Tb4 or peptides in kinase buffer supplied with kit • Added 10 μl of the solutions to wells of a 96-well plate coated with lkBa • IKKb (20 mU) was added to wells • 90 μl kinase reaction buffer (containing ATP) was added to the wells • ELISA to detect phosphorylated lkBa

[4] = system: neurite outgrowth; experiment: Promotion of neurite outgrowth (summary table); set-up: key: P = active; U = useful; conditions: summary of peptide uses
[5] = system: neuron survival; experiment: Promotion of neuron survival (summary table); set-up: key: P = active; U = useful; conditions: summary of peptide uses
[6] = system: L1; experiment: Stimulation of L1 production (summary table); set-up: key: P = active; U = useful; conditions: summary of peptide uses
[7] = system: tissue damage caused by UV radiation; experiment: UV radiation tissue damage (summary table); set-up: key: P = active; U = useful; conditions: summary of peptide uses
[8] = system: T-lymphocyte; experiment: Impaired T-lymphocyte blastogenic response (summary table); set-up: key: P = active; U = useful; conditions: summary of peptide uses
[9] = system: dermal Fb; experiment: TNF-a-stimulated IL-8 secretion ELISA, dermal fibroblasts; assay type: cell-based, human; conditions: 1 μg/ml, 10 ng/ml TNF-a
Procedure: (§2) Analysis of IL-8 Secretion • Human corneal epithelial cells or dermal Fb were cultured to 80% confluence • Cells were pre-treated with 1 μg/ml Tb4 or peptides for one hour • Cells were stimulated with 10 ng/ml TNF-a in the presence or absence of Tb4 or peptides • Culture medium was analyzed for secreted IL-8 by ELISA (n=3, experiments repeated twice) • Data was analyzed using the t-test

[10] = system: TNF-a-stimulated IL8 secretion; experiment: Suppression of inflammation (summary table; IL-8 secretion); assay type: cell-based, human; set-up: key: P = active; U = useful; conditions: summary of peptide uses
Procedure: as §2

[11] = system: cell migration; experiment: Stimulation of migration (summary table); assay type: cell-based; set-up: key: P = active; U = useful; conditions: summary of peptide uses
[12] = system: Human corneal epithelial cells; experiment: TNF-a-stimulated IL-8 secretion ELISA, corneal epithelial cells; assay type: cell-based; conditions: 1 μg/ml, 10 ng/ml TNF-a
Procedure: as §2

[13] = system: human dermal fibroblasts; experiment: LDH cytotoxicity assay in human dermal fibroblasts exposed to cytotoxic agents; assay type: cell-based; set-up: key to Protects from cytotoxicity: P = active; U = useful; conditions: for Protects from cytotoxicity: summary of peptide uses
Procedure: Dose Response Analysis of Peptide 3A • Human dermal fibroblasts (Fb, Cascade Biologics, OR) were cultured to 80% confluence • 2 ml CHX (0.002%) in basal medium ±1 μg/ml Tb4 or 1.0, 0.1, 0.01, or 0.001 μg/ml peptide 3A was added to Fb for 1, 2, 3, or 4 hours • 100 μl culture medium (n=4) was added to 100 μl LDH reagent and incubated at room temperature for 20 minutes • OD500 nm was read and averages ±SEM were calculated • Data was analyzed with probability of p≦0.05

[14] = system: human dermal Fb; experiment: CHX-induced apoptosis (APOPercentage dye) in human dermal Fb; assay type: cell-based; set-up: key to Inhibits apoptosis: P = active; U = useful; conditions: for Protection of dermal Fb against CHX-induced apoptosis: 1 μg/ml, 0.002% CHX for 2 hours; for Inhibits apoptosis: summary of peptide uses
Procedure: Effect of Tb4 and Peptide 3A on CHX-induced apoptosis • Human dermal Fb were cultured to 80% confluence • Fb were treated with 0.002% CHX+1 μg/ml Tb4 or peptide 3A, 4A or 6A for 1.5 hours • APOPercentage “dye” was added to the Fb cultures at a 1:50 dilution for an additional 30 minutes • Excess dye was washed from the cells, and digital images were captured. Cells dyed red were apoptotic • Adobe Photoshop was used to calculate the number of red pixels in six digitized images for each treatment • Statistical analysis was done using the t-test

[15] = system: human gingival fibroblasts; experiment: CHX-induced cytotoxicity in human gingival fibroblasts; assay type: cell-based
[16] = system: human gingival fibroblasts; experiment: CHX-induced apoptosis in human gingival fibroblasts; assay type: cell-based; conditions: 0.002% CHX for 2 hours
[17] = system: Transformed human corneal epithelial cells (HCET); experiment: Collagen type IV secretion ELISA; assay type: cell-based; set-up: key to Stimulates collagen IV: P = active; U = useful; conditions: summary of peptide uses
Procedure: Effect of Tb4 and peptides on collagen type IV secretion • Transformed human corneal epithelial cells (HCET) were cultured to 80% confluence • Cells were treated with 1 μg/ml Tb4 or peptides for 24 hours • Culture supernatant samples (n=3 per experiment, total of 4 experiments) were analyzed using a collagen type IV ELISA • Data was analyzed using the t-test

[18] = system: p65 subunit of NFkB in human corneal epithelial cells; experiment: NFkB nuclear translocation; assay type: cell-based; set-up: key: P = active; U = useful; conditions: summary of peptide uses
Procedure: Analysis of NFkB Nuclear Translocation • Human corneal epithelial cells were cultured to 80% confluence • Cells were pre-treated with 1 μg/ml Tb4 or peptide 4A or 6A for one hour • Cells were stimulated with 10 ng/ml TNF-a in the presence or absence of Tb4 or peptides for 15 minutes • Cells were fixed and labeled with antibodies to the p65 subunit of NFkB

[19] = 1 μg/ml, 0.002% CHX, 1, 2, or 3 hours exposure
[20] = 1 μg/ml, 0.002% CHX, 2 hour exposure

## Ac-Leu-Lys-Lys-Thr-Glu-Thr-Gln-Glu-Lys-Asn-Pro-Leu-Pro-Ser-Lys-Glu-Thr-Ile-Glu-Gln-Glu-Lys-Gln-Ala-Gly-Glu-Ser-OH (Ac-LKKTETQEKNPLPSKETIEQEKQAGES-OH) [Fragment Db]
[1]
  Inhibits collagens: U
[2]
  Stimulates Elastin: U
[3]
  Inhibits IkBa phosphorylation: U
[4]
  Promotes neurite outgrowth: U
[5]
  Promotes neuron survival: U
[6]
  Stimulates L1 production: U
[7]
  Inhibits tissue damage caused by UV radiation: U
  Protects tissue from UV radiation damage: U
[8]
  Restores impaired T-lymphocyte blastogenic response: U

## Ac-Ser-Asp-Lys-Pro-OH (Ac-SDKP-OH) [Peptide 2B]
[9]
  Suppression of TNF-a-stimulated IL8 secretion: suppress
[10]
  Suppresses inflammation: P
[11]
  Stimulates Migration: P
[4]
  Promotes neurite outgrowth: U
[5]
  Promotes neuron survival: U
[6]
  Stimulates L1 production: U
[7]
  Inhibits tissue damage caused by UV radiation: U
  Protects tissue from UV radiation damage: U

## H-Leu-Lys-Lys-Thr-Glu-Thr-Gln-Glu-Lys-Asn-Pro-Leu-Pro-Ser-Lys-Glu-Thr-Ile-Glu-Gln-Glu-Lys-Gln-Ala-Gly-Glu-Ser-OH (H-LKKTETQEKNPLPSKETIEQEKQAGES-OH) [Fragment Da]
[1]
  Inhibits collagens: U
[2]
  Stimulates Elastin: U
[3]
  Inhibits IkBa phosphorylation: U
[4]
  Promotes neurite outgrowth: U
[5]
  Promotes neuron survival: U
[6]
  Stimulates L1 production: U
[7]
  Inhibits tissue damage caused by UV radiation: U
  Protects tissue from UV radiation damage: U
[8]
  Restores impaired T-lymphocyte blastogenic response: U

## H-Leu-Lys-Lys-Thr-Glu-Thr-OH (H-LKKTET-OH) [Peptide 1A]
[12]
  Suppression of TNF-a-stimulated IL8 secretion: suppress
[10]
  Suppresses inflammation: P
[4]
  Promotes neurite outgrowth: U
[5]
  Promotes neuron survival: U
[6]
  Stimulates L1 production: U
[7]
  Inhibits tissue damage caused by UV radiation: U
  Protects tissue from UV radiation damage: U

## H-SDKPDMAEIEKFDKS-OH [Peptide 3A]
[13]; 1.0 μg/ml peptide, 0.002% CHX, 2 hours
  Protection of Fb against the cytotoxic effects of CHX (LDH), dose response analysis: protects
[13]; [19]
  Protection of Fb against the cytotoxic effects of CHX (LDH): protect
[13]; [20]
  Protection of Fb against the cytotoxic effects of CHX (LDH): protect
[13]; 0.002% and 0.005% CHX, 2 hours exposure
  Protection of Fb against the cytotoxic effects of CHX (LDH): protects
[13]; 0.01% benzalkonium chloride
  Protection of Fb against the cytotoxic effects of benzalkonium chloride (LDH): protects
[13]; 1% hydrogen peroxide
  Protection of Fb against the cytotoxic effects of hydrogen peroxide (LDH): protects
[13]; 10% ethanol
  Protection of Fb against the cytotoxic effects of ethanol (LDH): does not protect
[13]; cultured human dermal fibroblasts, up to 4 hours exposure
  Inhibition of chlorhexidine digluconate, hydrogen peroxide, and benzalkonium chloride-induced cytotoxicity: can inhibit
[13]
  Protects from cytotoxicity: P
[14]
  Protection of dermal Fb against CHX-induced apoptosis: protect; also recorded: can inhibit
  Inhibits apoptosis: P
[15]; 0.002% CHX
  Protection of gingival Fb against cytotoxicity induced by CHX: protects
[15]; cultured human gingival fibroblasts, Peridex diluted to 0.002% CHX
  Inhibition of chlorhexidine digluconate and Peridex induced cytotoxicity: can inhibit
[16]
  Protection of gingival Fb against CHX-induced apoptosis: protect; also recorded: can inhibit
[9]
  Suppression of TNF-a-stimulated IL8 secretion: suppress
[10]
  Suppresses inflammation: P
[4]
  Promotes neurite outgrowth: U
[5]
  Promotes neuron survival: U
[6]
  Stimulates L1 production: U
[7]
  Inhibits tissue damage caused by UV radiation: U
  Protects tissue from UV radiation damage: U

## H-SDKPDMAEIEKFDKSKLKKTET-OH [Fragment Aa]
[13]
  Protects from cytotoxicity: U
[14]
  Inhibits apoptosis: U
[17]
  Stimulates collagen IV: U
[1]
  Inhibits collagens: U
[2]
  Stimulates Elastin: U
[10]
  Suppresses inflammation: U
[18]
  Inhibits NFkB translocation: U
[11]
  Stimulates Migration: U
[4]
  Promotes neurite outgrowth: U
[5]
  Promotes neuron survival: U
[6]
  Stimulates L1 production: U
[7]
  Inhibits tissue damage caused by UV radiation: U
  Protects tissue from UV radiation damage: U

## H-SDKPDMAEIEKFDKSKLKKTETQ-OH [Fragment Ba]
[13]
  Protects from cytotoxicity: U
[14]
  Inhibits apoptosis: U
[17]
  Stimulates collagen IV: U
[1]
  Inhibits collagens: U
[2]
  Stimulates Elastin: U
[10]
  Suppresses inflammation: U
[18]
  Inhibits NFkB translocation: U
[11]
  Stimulates Migration: U
[4]
  Promotes neurite outgrowth: U
[5]
  Promotes neuron survival: U
[6]
  Stimulates L1 production: U
[7]
  Inhibits tissue damage caused by UV radiation: U
  Protects tissue from UV radiation damage: U

## Thymosin β4 [Tb4, reference compound]
[13]; [19]
  Protection of Fb against the cytotoxic effects of CHX (LDH): protect
[13]; [20]
  Protection of Fb against the cytotoxic effects of CHX (LDH): protect
[13]
  Protects from cytotoxicity: P
[14]
  Protection of dermal Fb against CHX-induced apoptosis: protect
  Inhibits apoptosis: P
[16]
  Protection of gingival Fb against CHX-induced apoptosis: protect
[2]; dermal Fb, 1 μg/ml once/day, 24, 48, or 72 hours
  Secretion of elastin: stimulate
[2]
  Stimulates Elastin: P
[12]
  Suppression of TNF-a-stimulated IL8 secretion: suppress
[9]
  Suppression of TNF-a-stimulated IL8 secretion: suppress
[10]
  Suppresses inflammation: P
[18]
  Inhibits NFkB translocation: P
[11]
  Stimulates Migration: P
[4]
  Promotes neurite outgrowth: P
[5]
  Promotes neuron survival: P
[6]
  Stimulates L1 production: P
[7]
  Inhibits tissue damage caused by UV radiation: P
  Protects tissue from UV radiation damage: P
[8]
  Restores impaired T-lymphocyte blastogenic response: P
